# In BindingDB's records for doi:10.1016/j.bioorg.2017.02.010 (Charles University, 2017):
# Several values for one entry are separate records, joined by “and”; a condition that tells them apart may be missing. Equal values may be shown once.
# What was measured:
# [1] = molecular target: Carboxylic ester hydrolase (Equus caballus, UniProt Q9N1N9); assay: Cholinesterase Inhibition Assay
# [2] = molecular target: Acetylcholinesterase (Electrophorus electricus, UniProt O42275); assay: Cholinesterase Inhibition Assay
# Sequence of Acetylcholinesterase (O42275 whole entry): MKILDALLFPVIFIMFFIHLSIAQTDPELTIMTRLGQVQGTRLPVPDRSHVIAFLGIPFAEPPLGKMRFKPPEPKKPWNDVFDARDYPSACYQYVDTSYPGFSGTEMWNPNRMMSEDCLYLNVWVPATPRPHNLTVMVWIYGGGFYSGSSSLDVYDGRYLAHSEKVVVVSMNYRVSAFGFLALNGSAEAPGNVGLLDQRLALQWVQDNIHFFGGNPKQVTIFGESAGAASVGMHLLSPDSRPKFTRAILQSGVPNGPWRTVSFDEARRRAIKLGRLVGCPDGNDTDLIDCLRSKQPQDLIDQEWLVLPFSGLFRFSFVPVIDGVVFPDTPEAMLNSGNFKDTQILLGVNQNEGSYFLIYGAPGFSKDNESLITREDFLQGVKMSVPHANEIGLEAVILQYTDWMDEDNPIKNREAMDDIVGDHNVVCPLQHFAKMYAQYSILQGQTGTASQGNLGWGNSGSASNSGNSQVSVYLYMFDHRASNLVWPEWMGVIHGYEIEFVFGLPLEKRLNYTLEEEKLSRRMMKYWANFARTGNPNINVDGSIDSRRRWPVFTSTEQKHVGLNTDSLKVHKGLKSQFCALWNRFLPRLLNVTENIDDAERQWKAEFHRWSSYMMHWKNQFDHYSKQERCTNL
# Sequence of Carboxylic ester hydrolase (Q9N1N9 whole entry): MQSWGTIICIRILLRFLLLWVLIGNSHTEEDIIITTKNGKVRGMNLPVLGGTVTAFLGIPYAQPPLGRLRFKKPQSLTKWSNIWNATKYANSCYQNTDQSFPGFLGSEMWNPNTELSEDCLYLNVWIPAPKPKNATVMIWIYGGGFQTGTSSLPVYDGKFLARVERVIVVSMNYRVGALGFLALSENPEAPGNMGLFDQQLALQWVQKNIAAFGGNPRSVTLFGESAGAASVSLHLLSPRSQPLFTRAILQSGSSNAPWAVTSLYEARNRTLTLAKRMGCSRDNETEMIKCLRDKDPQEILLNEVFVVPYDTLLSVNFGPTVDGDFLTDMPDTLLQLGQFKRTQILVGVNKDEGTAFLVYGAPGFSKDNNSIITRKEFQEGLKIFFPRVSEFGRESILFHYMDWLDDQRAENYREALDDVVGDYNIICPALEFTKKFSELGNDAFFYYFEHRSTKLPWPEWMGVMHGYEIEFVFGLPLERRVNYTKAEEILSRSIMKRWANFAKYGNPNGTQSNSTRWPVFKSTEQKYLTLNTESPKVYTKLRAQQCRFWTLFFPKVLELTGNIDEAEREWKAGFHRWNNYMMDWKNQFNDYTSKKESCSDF
SMILES,IC50 [1],IC50 [2]
CC(=O)NC(Cc1ccccc1F)C(=O)Nc1ccc(C)cc1 (centres undefined) [2-Acetamido-3-(2-fluorophenyl)-N-(4-methylphenyl)propanamide (1b)],113 µM,69 µM
CC(=O)NC(Cc1ccccc1F)C(=O)Nc1ccc([N+](=O)[O-])cc1 (centres undefined) [2-Acetamido-3-(2-fluorophenyl)-N-(4-nitrophenyl)propanamide (1c)],154 µM,64.4 µM
CC(=O)NC(Cc1ccccc1F)C(=O)Nc1ccc(C(F)(F)F)cc1 (centres undefined) [2-Acetamido-3-(2-fluorophenyl)-N-[4-(trifluoromethyl)phenyl]propanamide (1d)],218 µM,73.4 µM
CC(=O)NC(Cc1ccccc1F)C(=O)Nc1ccccc1 (centres undefined) [2-Acetamido-3-(2-fluorophenyl)-N-phenylpropanamide (1e)],121 µM,86.3 µM
CC(=O)NC(Cc1cccc(F)c1)C(=O)Nc1ccc(C)cc1 (centres undefined) [2-Acetamido-3-(3-fluorophenyl)-N-(4-methylphenyl)propanamide (2b)],143 µM,68.7 µM
CC(=O)NC(Cc1cccc(F)c1)C(=O)Nc1ccc([N+](=O)[O-])cc1 (centres undefined) [2-Acetamido-3-(3-fluorophenyl)-N-(4-nitrophenyl)propanamide (2c)],120 µM,70.6 µM
CC(=O)NC(Cc1cccc(F)c1)C(=O)Nc1ccc(C(F)(F)F)cc1 (centres undefined) [2-Acetamido-3-(3-fluorophenyl)-N-[4-(trifluoromethyl)phenyl]propanamide (2d)],164 µM,79.4 µM
CC(=O)NC(Cc1cccc(F)c1)C(=O)Nc1ccccc1 (centres undefined) [2-Acetamido-3-(3-fluorophenyl)-N-phenylpropanamide (2e)],157 µM,86.5 µM
CC(=O)NC(Cc1ccc(F)cc1)C(=O)Nc1ccc(C)cc1 (centres undefined) [2-Acetamido-3-(4-fluorophenyl)-N-(4-methylphenyl)propanamide (3b)],154 µM,69 µM
CC(=O)NC(Cc1ccc(F)cc1)C(=O)Nc1ccc([N+](=O)[O-])cc1 (centres undefined) [2-Acetamido-3-(4-fluorophenyl)-N-(4-nitrophenyl)propanamide (3c)],162 µM,66 µM
CC(=O)NC(Cc1ccc(F)cc1)C(=O)Nc1ccc(C(F)(F)F)cc1 (centres undefined) [2-Acetamido-3-(4-fluorophenyl)-N-[4-(trifluoromethyl)phenyl]propanamide (3d)],289 µM,84.1 µM
CC(=O)NC(Cc1ccc(F)cc1)C(=O)Nc1ccccc1 (centres undefined) [2-Acetamido-3-(4-fluorophenyl)-N-phenylpropanamide (3e)],89.8 µM,99.8 µM
CC(=O)NC(Cc1ccccc1F)C(=O)Nc1ccc(Cl)cc1 (centres undefined) [2-Acetamido-N-(4-chlorophenyl)-3-(2-fluorophenyl)propanamide (1a)],227 µM,76.5 µM
CC(=O)NC(Cc1cccc(F)c1)C(=O)Nc1ccc(Cl)cc1 (centres undefined) [2-Acetamido-N-(4-chlorophenyl)-3-(3-fluorophenyl)propanamide (2a)],170 µM,70.7 µM
CC(=O)NC(Cc1ccc(F)cc1)C(=O)Nc1ccc(Cl)cc1 (centres undefined) [2-Acetamido-N-(4-chlorophenyl)-3-(4-fluorophenyl)propanamide (3a)],235 µM,97 µM
CC(=O)NC(Cc1ccccc1F)C(=O)O (centres undefined) [2-acetamido-3-(2-fluorophenyl)propanoic acid (1)],217 µM,64.2 µM

SMILES,IC50 [1],IC50 [2]
CC(=O)NC(Cc1cccc(F)c1)C(=O)O (centres undefined) [2-acetamido-3-(3-fluorophenyl)propanoic acid (2)],210 µM,63.6 µM
CC(=O)NC(Cc1ccc(F)cc1)C(=O)O (centres undefined) [2-acetamido-3-(4-fluorophenyl)propanoic acid (3)],227 µM,63.7 µM
CC(=O)NC(Cc1ccccc1F)C(=O)Oc1ccc(C(F)(F)F)cc1 (centres undefined) [4-(Trifluoromethyl)phenyl 2-acetamido-3-(2-fluorophenyl)propanoate (1i)],37.4 µM and 59.8 µM,68 µM and 62.9 µM
CC(=O)NC(Cc1cccc(F)c1)C(=O)Oc1ccc(C(F)(F)F)cc1 (centres undefined) [4-(Trifluoromethyl)phenyl 2-acetamido-3-(3-fluorophenyl)propanoate (2i)],34 µM,62.2 µM
CC(=O)NC(Cc1ccccc1F)C(=O)Oc1ccc(Cl)cc1 (centres undefined) [4-Chlorophenyl 2-acetamido-3-(2-fluorophenyl)propanoate (1f)],82.2 µM,104 µM
CC(=O)NC(Cc1cccc(F)c1)C(=O)Oc1ccc(Cl)cc1 (centres undefined) [4-Chlorophenyl 2-acetamido-3-(3-fluorophenyl)propanoate (2f)],52.7 µM,115 µM
CC(=O)NC(Cc1ccc(F)cc1)C(=O)Oc1ccc(Cl)cc1 (centres undefined) [4-Chlorophenyl 2-acetamido-3-(4-fluorophenyl)propanoate (3f)],59.1 µM,131 µM
CC(=O)NC(Cc1ccccc1F)C(=O)Oc1ccc(C)cc1 (centres undefined) [4-Methylphenyl 2-acetamido-3-(2-fluorophenyl)propanoate (1g)],85.4 µM,57.9 µM
CC(=O)NC(Cc1cccc(F)c1)C(=O)Oc1ccc(C)cc1 (centres undefined) [4-Methylphenyl 2-acetamido-3-(3-fluorophenyl)propanoate (2g)],90.9 µM,68.5 µM
CC(=O)NC(Cc1ccc(F)cc1)C(=O)Oc1ccc(C)cc1 (centres undefined) [4-Methylphenyl 2-acetamido-3-(4-fluorophenyl)propanoate (3g)],83.3 µM,73.3 µM
CC(=O)NC(Cc1ccccc1F)C(=O)Oc1ccc([N+](=O)[O-])cc1 (centres undefined) [4-Nitrophenyl 2-acetamido-3-(2-fluorophenyl)propanoate (1h)],77.5 µM,76.7 µM
CC(=O)NC(Cc1cccc(F)c1)C(=O)Oc1ccc([N+](=O)[O-])cc1 (centres undefined) [4-Nitrophenyl 2-acetamido-3-(3-fluorophenyl)propanoate (2h)],142 µM,74.3 µM
CC(=O)NC(Cc1ccc(F)cc1)C(=O)Oc1ccc([N+](=O)[O-])cc1 (centres undefined) [4-Nitrophenyl 2-acetamido-3-(4-fluorophenyl)propanoate (3h)],126 µM,60 µM
CC(=O)NC(Cc1ccccc1F)C(=O)Oc1ccccc1 (centres undefined) [Phenyl 2-acetamido-3-(2-fluorophenyl)propanoate (1j)],30 µM,79.2 µM
CC(=O)NC(Cc1cccc(F)c1)C(=O)Oc1ccccc1 (centres undefined) [Phenyl 2-acetamido-3-(3-fluorophenyl)propanoate (2j)],53.7 µM,87.8 µM
CC(=O)NC(Cc1ccc(F)cc1)C(=O)Oc1ccccc1 (centres undefined) [Phenyl 2-acetamido-3-(4-fluorophenyl)propanoate (3j)],8.25 µM,98.3 µM
